Reference: US20120219536A1, “PURINE-TARGETED DIAGNOSIS AND THERAPY OF WOUNDS” (Queensland University of Technology, priority 2009, published 2012)
Read-outs that look alike come from different tables or passages of the source.

Tests used:
[1] = system: mice; conditions: cited from earlier work
[2] = biological target: T1, xanthine oxidase (Homo sapiens, UniProt P47989); assay: Xanthine oxidase activity and inhibition in pooled chronic wound fluid (CWF), RP-HPLC; format: biochemical; conditions: pooled CWF retentate, 10 μmol/L allopurinol, 37° C., 2.5 hr
T1 construct: from tissue; host or cells: pooled chronic wound fluid (CWF), retentate of 3K ultrafiltration
Description: Additionally, samples were treated with allopurinol, a specific XO inhibitor, and the production of the metabolite oxypurinol determined at A254. Firstly, CWF was concentrated by centrifugation using nanosep 3K omega filters (PALL) at 10,000 g for 10 min at 4° C. The retentate was resuspended with 10 mM Tris-HCl buffer, pH 8.0 containing either 10 μmol/L of xanthine or allopurinol, then incubated at 37° C. for 2.5 hr in the ultrafiltration unit. After incubation, the reaction mixture was de-proteinised as per the manufacturer's instructions and the resulting filtrates analysed using reverse phase HPLC as previously outlined.
In further support of this finding, XO enzyme inhibition was assayed using a potent XO inhibitor, allopurinol. Allopurinol is rapidly metabolised by XO to generate the active metabolite, oxypurinol, which itself is an inhibitor of XO. […] Western blotting confirmed the presence of the enzyme in wound fluid (data not shown).

T1 sequence (P47989 whole entry): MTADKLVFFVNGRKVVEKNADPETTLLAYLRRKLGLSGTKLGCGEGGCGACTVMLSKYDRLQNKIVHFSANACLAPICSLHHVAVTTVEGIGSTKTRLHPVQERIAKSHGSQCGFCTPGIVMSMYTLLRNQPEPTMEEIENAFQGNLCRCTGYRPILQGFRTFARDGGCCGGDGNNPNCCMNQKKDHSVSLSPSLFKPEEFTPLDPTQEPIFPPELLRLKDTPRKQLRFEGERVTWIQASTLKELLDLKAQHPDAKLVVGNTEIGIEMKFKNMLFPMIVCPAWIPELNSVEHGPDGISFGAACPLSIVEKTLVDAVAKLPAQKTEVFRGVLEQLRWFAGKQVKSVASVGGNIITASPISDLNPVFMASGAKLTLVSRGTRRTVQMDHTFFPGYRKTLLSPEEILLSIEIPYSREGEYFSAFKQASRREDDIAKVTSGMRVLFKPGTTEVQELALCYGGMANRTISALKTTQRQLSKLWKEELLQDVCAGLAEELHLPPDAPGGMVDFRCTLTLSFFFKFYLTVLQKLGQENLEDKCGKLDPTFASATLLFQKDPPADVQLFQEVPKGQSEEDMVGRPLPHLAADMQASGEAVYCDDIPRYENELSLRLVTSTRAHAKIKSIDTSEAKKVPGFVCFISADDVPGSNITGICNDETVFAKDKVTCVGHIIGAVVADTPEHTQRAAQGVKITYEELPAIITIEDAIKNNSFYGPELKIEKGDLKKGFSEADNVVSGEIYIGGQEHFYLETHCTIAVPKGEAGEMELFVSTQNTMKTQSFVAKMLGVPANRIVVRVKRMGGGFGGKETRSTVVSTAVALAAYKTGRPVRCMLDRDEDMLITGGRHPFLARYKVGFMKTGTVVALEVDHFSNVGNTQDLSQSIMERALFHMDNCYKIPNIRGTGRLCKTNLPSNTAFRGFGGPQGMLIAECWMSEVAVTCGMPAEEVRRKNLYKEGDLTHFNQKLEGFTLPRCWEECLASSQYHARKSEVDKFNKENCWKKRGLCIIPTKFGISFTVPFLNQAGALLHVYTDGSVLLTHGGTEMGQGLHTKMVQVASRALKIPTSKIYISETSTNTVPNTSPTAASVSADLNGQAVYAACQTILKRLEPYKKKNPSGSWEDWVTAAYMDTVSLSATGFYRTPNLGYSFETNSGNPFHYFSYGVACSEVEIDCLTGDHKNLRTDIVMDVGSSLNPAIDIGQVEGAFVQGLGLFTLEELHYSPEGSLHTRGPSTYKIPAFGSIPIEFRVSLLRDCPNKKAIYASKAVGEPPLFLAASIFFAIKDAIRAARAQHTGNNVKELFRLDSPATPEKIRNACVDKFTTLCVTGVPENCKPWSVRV

## 1,4-dihydropyrazolo[4,3-d]pyrimidin-7-one [Allopurinol]
[1]; given intraperitoneally
  50% lethal dose (LD50): 160 mg/kg
[1]; given orally
  50% lethal dose (LD50): 700 mg/kg
[2]; HPLC at A254
  production of the metabolite oxypurinol by XO: a peak consistent with the retention time of oxypurinol standard was detected
[2]; HPLC at A280
  XO enzyme inhibition: production of uric acid: did not reveal a peak corresponding to uric acid
